# From patent US20210059977A1, “COMBINATION THERAPIES FOR THE TREATMENT OF AMYOTROPHIC LATERAL SCLEROSIS AND RELATED DISORDERS” (The General Hospital Corporation, priority 2018, published 2021)
# Experiments:
# [1] = system: SOD1^G93A mouse model; experiment: Neurological scoring (ALS TDI criteria); format: in vivo, mice; conditions: 6.3 mg/kg i.p.
# Protocol: Beginning at P50, weight and neurological score (using the ALS TDI criteria) (Hatzipetros, T., et al. (2015). “A Quick Phenotypic Neurological Scoring System for Evaluating Disease Progression in the SOD1-G93A Mouse Model of ALS.” J Vis Exp(104); Leitner M., et. al. (2009). “Working with ALS mice: Guidelines for preclinical testing & colony management.” The Jackson Laboratory) were recorded for each mouse every 5 days until death or euthanasia. ALS TDI criteria are as follows: • Score of 0: Full extension of hind legs away from lateral midline when mouse is suspended by its tail, and mouse can hold this for two seconds, suspended two to three times. • Score of 1: Collapse or partial collapse of leg extension towards lateral midline (weakness) or trembling of hind legs during tail suspension. • Score of 2: Toes curl under at least twice during walking of 12 inches, or any part of foot is dragging along cage bottom/table. • Score of 3: Rigid paralysis or minimal joint movement, foot not being used for generating forward motion. • Score of 4: Mouse cannot right itself within 15 seconds after being placed on either side. *Mice were euthanized upon obtaining a score of 4.
# (§1) 149 male and female age- and litter-matched transgenic (Tg) SOD1^G93A and wild-type (Wt) SOD1^G93A mice were used with the following breakdown: Females (19 WtSOD1-Vehicle, 17 WtSOD1-Cromolyn, 19 TgSOD1-Vehicle, and 17 TgSOD1-Cromolyn) and Males (18 WtSOD1-Vehicle, 21 WtSOD1-Cromolyn, 21 TgSOD1-Vehicle, 17 TgSOD1-Cromolyn).
# [2] = system: SOD1^G93A mouse model; experiment: Rotarod; format: in vivo, mice; conditions: TgSOD1-Cromolyn vs TgSOD1-Vehicle; 6.3 mg/kg i.p.
# Protocol: Mice were placed on a fixed speed (16 rpm) rotating rod (3.0 cm) (Rotamex, Columbus Instruments) as previously described. Mice were trained to remain on the rotarod for 180 seconds once at P40. For each experimental time point (P70, P90, P110, P130, P150), the time mice spent on the rotating rod was calculated up to a maximum of 180 seconds. Three trials were performed for each time point and the greatest value for each session was used for analysis.
# as §1
# [3] = system: SOD1^G93A mouse model; experiment: Survival; format: in vivo, mice; conditions: Mantel-Cox test
# Protocol: 149 mice were used in this study. All animal care, husbandry and experimentation were performed according to the guidelines set by the Massachusetts General Hospital Subcommittee on Research Animal Care. These experiments were approved by the Massachusetts General Hospital Institutional Animal Care and Use Committee (2014N000018). All mice were given access to food and water ad libitum. Mice were assessed regularly for motor impairment and euthanized upon onset of major paralysis (neurological scoring=4, see Neurological Score below) to minimize suffering as described previously. […] The endpoint used in this study was based on previously reported criteria by ALS TDI, the loss of self-righting ability within 15 seconds (neurological score=4) or the inability to move to reach food on the cage floor. Mice that reached the humane endpoint were euthanized within 3 hours.
# as §1
# [4] = system: Iba1-positive cell area in lumbar spinal cord; experiment: Iba1 immunohistochemical analysis (microgliosis); format: in vivo, mice; conditions: TgSOD1-Cromolyn vs TgSOD1-Vehicle
# Protocol: Frozen spinal cord sections were fixed in 4% PFA/PBS for 72 hours and dehydrated with 30% sucrose in PBS. Sections were washed three times (5 minutes each) with PBS and incubated with 3% H2O2 in PBS for 15 minutes to quench endogenous peroxidases. Sections were subsequently washed three times with PBS and blocked using 5% (v/v) normal goat serum (Vector Laboratories), 0.3% Triton X-100 in PBS. Primary antibody against Iba1 (rabbit polyclonal, 1:400, Wako, #019-19741) was diluted in a buffer containing 2.5% (v/v) normal goat serum, 0.3% Triton X-100 and incubated overnight at 4° C. On the following day, samples were washed three times (10 minutes each) with PBS. The primary antibody was detected using a biotinylated secondary antibody (1:200) and VECTASTAIN Elite ABC HRP kit (Vector Laboratories), and developed with DAB (Vector Laboratories), following the provider's instructions. Sections were dehydrated in a series of graded ethanol, cleared in xylene, and cover-slipped with Cytoseal-XYL xylene-based mounting medium (Thermo Fisher Scientific). Sections were imaged using a light microscope (TE360 Eclipse; Nikon, Japan) at 10× magnification. The Iba1-positive cell area (area occupied by Iba1-positive cells divided by the total area) was quantified for each spinal cord section using ImageJ software (Voxel counter plugin, NIH, USA). Two to three sections were analyzed per mouse. […]
# [5] = system: MCP-1; experiment: CCL2/MCP-1 ELISA assay; format: in vivo, mice
# Protocol: Spinal cord tissue was homogenized, and supernatants were derived as described in the section related to the Meso Scale Discovery cytokine assay. MCP-1 levels were measured in the supernatants generated from spinal cord tissue or in the plasma using the 96-well Mouse CCL2/JE/MCP-1 Quantikine ELISA Kit (R&D systems, #MJE00B), following the manufacturer's instructions. Briefly, samples and diluted standards were added to the plate coated with MCP-1-specific antibody. Samples were incubated in the plate for 2 hours on a shaker at room temperature, followed by washes with the wash buffer provided in the kit. Subsequently, horseradish peroxidase conjugated antibody against MCP-1 was added to each well and incubated for 2 hours at room temperature on the shaker. The plate was washed with the wash buffer and incubated with Substrate solution for 30 minutes at room temperature. Next, Stop solution was added and the signal was read on a Microplate reader (Synergy 2, Biotek Instruments). The optical density was measured at […] and was corrected with the optical density measured at 540 nm. MCP-1 levels in the samples were calculated based on the MCP-1 standard curve. Protein concentrations in the supernatants were measured by the Pierce BCA protein assay kit (Thermo Scientific). Values in the graphs represent levels of MCP-1 normalized to the corresponding protein concentrations. […]
# [6] = molecular target: G-protein-coupled receptor 35 (GPR35) (Homo sapiens, UniProt Q9HC97); conditions: cited from earlier work
# [7] = molecular target: alpha-synuclein peptides (Homo sapiens, UniProt P37840); conditions: cited from earlier work
# [8] = system: SOD1 gene; conditions: in vitro studies; cited from earlier work
# G-protein-coupled receptor 35 (GPR35), sequence (Q9HC97 whole entry, species assumed): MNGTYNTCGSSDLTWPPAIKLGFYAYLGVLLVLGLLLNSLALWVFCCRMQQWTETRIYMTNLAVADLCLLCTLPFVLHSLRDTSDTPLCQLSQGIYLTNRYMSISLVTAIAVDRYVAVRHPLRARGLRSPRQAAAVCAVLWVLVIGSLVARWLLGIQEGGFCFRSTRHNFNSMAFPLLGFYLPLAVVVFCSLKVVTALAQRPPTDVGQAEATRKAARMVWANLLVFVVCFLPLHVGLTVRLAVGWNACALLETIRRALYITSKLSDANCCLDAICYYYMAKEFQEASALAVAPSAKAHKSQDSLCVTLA
smiles,measurement,setting,value
"O=C(O)c1cc(=O)c2c(OCC(O)COc3cccc4oc(C(=O)O)cc(=O)c34)cccc2o1 [cromolyn, cromolyn sodium]",neurological score,"[1]; TgSOD1-Cromolyn vs TgSOD1-Vehicle, all mice, P90, P100, P110, P130, P140",significantly delayed disease onset and progression
same,neurological score,"[1]; female mice, P90, P100, P120, P130, P140",significant increase in neurological score in the female TgSOD1-Vehicle treated group compared to TgSOD1-Cromolyn group
same,neurological score,"[1]; male mice, P90, P100, P110",significant increase in neurological score in male TgSOD1-Vehicle treated group compared to TgSOD1-Cromolyn group
same,rotarod performance,[2],no difference in rotarod performance
same,survival,"[3]; all treated mice, p=0.1096",did not have a significant effect on survival
same,survival,"[3]; female mice, p=0.01",significant effect of treatment on female survival
same,survival,"[3]; male mice alone, p<0.8831",did not have a significant effect on survival
same,percentage of Iba1-positive cell area in the lumbar spinal cord,[4],no significant change
same,MCP-1 levels in the spinal cord,[5]; TgSOD1-Cromolyn vs TgSOD1-Vehicle,no effect of cromolyn treatment on MCP-1 levels
same,MCP-1 levels in the plasma,[5]; any of the groups,not altered
same,agonism of GPR35,[6],potent agonist
same,binding to alpha-synuclein peptides and polymerization,[7],inhibiting their polymerization to higher order aggregates
same,effect on SOD1 gene,[8],inhibits the SOD1 gene
